Experimental data taken from PubChem BioAssay AID1259332 (Broad Institute, 2017).
Calls of active or inactive are those of the source. How the calls were made is not given here.

test system: B cell line, CD40 signaling inhibition reporter; test: CD40 pathway inhibition in B cells – B cell lineage, dose response (AID 1259332);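 further: cells stimulated with CD40 ligand tCD40L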

| SMILES | AC50 |
| --- | --- |
| C[C@@H]1CN([C@@H](C)CO)C(=O)c2cc(C#CCc3ccccc3)cnc2O[C@@H]1CN(C)C(=O)C1CCOCC1 | 7.23 µM |
| COc1cccc(S(=O)(=O)N(C)C[C@H]2OCc3ccccc3-c3c(n(C)c4ccccc34)C(=O)N([C@H](C)CO)C[C@@H]2C)c1 | > 7 µM (inactive) |
| Cc1ccc(S(=O)(=O)CCC(=O)N(CCCN2CCOCC2)c2nc3ccccc3s2)cc1 | 8.01 µM |
| Cc1ccsc1C(=O)OCC(=O)c1cc(C)n(CC2CCCO2)c1C (configuration not stated) | 0.124 µM |
| Cn1c(CO)nc2cc(N)ccc21 | > 20 µM (inactive) |
| CC1=CC(C)(C)N=C(Nc2nc(C)c3cc(C)cc(C)c3n2)N1 | 3.85 µM |
| O=C(/C=C/c1ccccc1)CC(O)(c1ccccc1)C(F)(F)C(F)F (configuration not stated) | 6.39 µM |
| C[C@H](CO)N1C[C@H](C)[C@@H](CN(C)Cc2cccc(C(F)(F)F)c2)OCc2ccccc2-c2c(n(C)c3ccccc23)C1=O | > 20 µM (inactive) |
| COC(=O)C1=C(C(=O)OC)C(C(=O)OC)C(C(=O)OC)C(C(=O)OC)(C(=O)OC)C(C(=O)OC)=C1C(=O)OC (configuration not stated) | 3.44 µM |
| CCOC(=O)c1c(SCCN2CCCC2)n(-c2ccccc2)c(=S)n(-c2ccccc2)c1=O | > 20 µM (inactive) |
| COc1cc2c(cc1OC)C(=O)C(Br)CC2 (configuration not stated) | 3.76 µM |
| N#Cc1cccc(-c2ccc([C@@H]3[C@@H]4CN(S(=O)(=O)c5ccc(-c6ccccc6)cc5)C[C@H]3N4)cc2)c1 | > 20 µM (inactive) |
| CCOc1ncccc1C(=O)OC(C)C(=O)Nc1ccc(Cl)cn1 (configuration not stated) | 10.1 µM |
| CC(=O)OC1CC2(O)C3CCC4CC(O)CCC4(C)C3CCC2(C)C1C1=CC(=O)OC1 (configuration not stated) | 1.12 µM |
| CC(C)OC(=O)c1cn(Cc2c(F)cccc2F)c2sc(-c3ccc(NC(=O)C(C)C)cc3)c(CN(C)Cc3ccccc3)c2c1=O | > 20 µM (inactive) |
| CCN1/C(=C/c2sc(-c3ccccc3C)c[n+]2C)Sc2ccccc21 | 1.91 µM |
| c1ccc(OCCSc2nnc3sc4ccccc4n23)cc1 | 4.7 µM |
| CC[C@@]1(O)C(=O)OCc2c1cc1n(c2=O)Cc2cc3ccccc3nc2-1 | 0.961 µM |
| [O-]C(=C(C(=S)Nc1cccc2ccccc12)[n+]1ccccc1)c1ccc2c(c1)OCCO2 | > 20 µM (inactive) |
| CC(=O)OCC(=O)C1(O)CCC2C3CCC4=CC(=O)CCC4(C)C3(Cl)C(O)CC21C (configuration not stated) | > 20 µM (inactive) |
| C[C@H]1CN([C@@H](C)CO)C(=O)c2c(c3ccccc3n2C)-c2ccccc2CO[C@@H]1CN(C)C(=O)Nc1cccc(C(F)(F)F)c1 | 11.1 µM |
| COc1ccc(C(=O)O/N=C2\C(=O)N(C)c3ccccc32)cc1 | 1.84 µM |
| O=C(C1CCOCC1)N1CC(=O)N2[C@H](C1)[C@@H](c1ccc(C#CCc3ccccc3)cc1)[C@@H]2CO | 5.95 µM |

| SMILES | AC50 |
| --- | --- |
| Clc1ccc(COC(Cn2ccnc2)c2ccc(Cl)cc2Cl)c(Cl)c1 (configuration not stated) | 5.18 µM |
| COc1cccc(C#Cc2ccc([C@H]3[C@@H](C#N)N(C(=O)c4ccccn4)[C@@H]3CO)cc2)c1 | 5.81 µM |
| N#C[C@@H]1[C@H](c2ccc(C#CC3CCCCC3)cc2)[C@H](CO)N1C(=O)Nc1ccc(F)cc1 | > 20 µM (inactive) |
| c1ccc2nc(-c3nc4ccccc4o3)ccc2c1 | 4.54 µM |
| CC1OC(OC2C(O)CC(OC3C(O)CC(OC4CCC5(C)C(CCC6C5CCC5(C)C(C7=CC(=O)OC7)C(O)CC65O)C4)OC3C)OC2C)CC(O)C1O (configuration not stated) | 0.943 µM |
| N#C[C@@H]1[C@H](c2ccc(C#CC3CCCCC3)cc2)[C@@H](CO)N1S(=O)(=O)c1ccccc1 | 2.28 µM |
| C[C@H](CO)N1C[C@H](C)[C@H](CN(C)S(=O)(=O)c2ccc(Cl)cc2)Oc2c(NC(=O)Nc3ccc(F)cc3)cccc2C1=O | 6.47 µM |
| CC1=C(O)C(=O)C=C2C1=CC=C1C2(C)CCC2(C)C3CC(C)(C(=O)O)CCC3(C)CCC12C (configuration not stated) | 0.888 µM |
| CC1CC(C)C(=NNC(N)=O)C(C(O)CC2CCC(=O)NC2=O)C1 (configuration not stated) | 0.241 µM |
| Cc1csc(NC(=O)c2ccc(N3CCCC3=O)cc2)n1 | 4.3 µM |
| COc1cccc(/C=N/Nc2ccc(C(=O)O)cc2)c1O | 1.33 µM |
| Oc1c(Cl)cc(Cl)cc1Sc1cc(Cl)cc(Cl)c1O | 7.67 µM |
| CC(=O)O[C@@H]1C[C@@]2(C)[C@H](c3ccoc3)C[C@H]3O[C@]32[C@]2(C)C(=O)C(=O)C3C(C)(C)C(=O)C=C[C@]3(C)C12 (some centres not stated) | 1.22 µM |
| CC(C)(C)NCC(=Cc1ccccc1)C(=O)c1ccccc1 | 7.22 µM |
| O=C(NC(=S)/C(=C1\CCCCCN1)[N+](=O)[O-])c1ccccc1 | 3.07 µM |
| N#Cc1cccc(-c2ccc(C3[C@H]4CNC[C@@H]3N4Cc3ccc4c(c3)OCO4)cc2)c1 (some centres not stated) | > 20 µM (inactive) |
| CCN(CC)C(=O)c1ccc(NC(=O)Nc2ccccc2F)cc1 | 2.35 µM |
| CCN1C(=O)C(CC(=O)Nc2ccc(F)cc2)N(Cc2ccco2)C1=S (configuration not stated) | 5.03 µM |
| CCc1cnc(N2[C@H](C#N)[C@H](c3ccc(C#Cc4ccccc4F)cc3)[C@H]2CO)s1 | 9.09 µM |
| O=C(C[C@@H]1C[C@H]2c3cc(NC(=O)Nc4ccc(C(F)(F)F)cc4)ccc3O[C@H]2[C@H](CO)O1)NCc1cc(F)ccc1F | > 20 µM (inactive) |
| CC(C)Cc1ccc(C(C)CC2=CCC(CN(C)C)C2=O)cc1 (configuration not stated) | 3.99 µM |
| CC(C)(C)OC(=O)CC(S(=O)(=O)c1ccccc1)S(=O)(=O)c1ccccc1 | 0.95 µM |
| COc1ccc(S(=O)(=O)Nc2ccc3c(c2)C(=O)N([C@@H](C)CO)C[C@@H](C)[C@@H](CN(C)Cc2ccc(C(F)(F)F)cc2)OCCCC[C@H](C)O3)cc1 | > 7 µM (inactive) |

| SMILES | AC50 |
| --- | --- |
| CC(C)c1ccc(NC(=O)Nc2nc(C(N)COCc3ccccc3)cs2)cc1 (configuration not stated) | 2.62 µM |
| C[C@H](CO)N1C[C@H](C)[C@@H](CN(C)Cc2ccc(Oc3ccccc3)cc2)Oc2c(NC(=O)CCC(F)(F)F)cccc2C1=O | 8.77 µM |
| O=C(COC(=O)c1ccccc1)c1ccc2c(c1)OCCO2 | 0.926 µM |
| COc1cc(C(C)C)c2c(c1)S(=O)(=O)N(COc1cc(=O)n3cccc(OCCN4CCCCC4)c3n1)C2=O | 2.64 µM |
| Nc1ccc(-c2cccc3c(=O)cc(N4CCOCC4)oc23)cc1 | 10.9 µM |
| C[C@H](CO)N1C[C@H](C)[C@H](CN(C)C(=O)Nc2cccc(Cl)c2Cl)OCc2ccccc2-c2c(n(C)c3ccccc23)C1=O | 5.24 µM |
| COc1ccc(C[C@H]2NC[C@H](O)[C@H]2OC(C)=O)cc1 | 0.0235 µM |
| CCCC(=O)NC1=C(Cl)C(=O)c2ccccc2C1=O | 0.935 µM |
| NC(=NCCCCCCN=C(N)/N=C(\N)Nc1ccc(Cl)cc1)/N=C(\N)Nc1ccc(Cl)cc1 | > 20 µM (inactive) |
| O=C(c1ccc(F)cc1)N1C[C@@H]2N[C@H](C1)C2c1ccc(/C=C/c2ccccc2)cc1 (some centres not stated) | 4.68 µM |
| C[C@@H]1CCCCO[C@@H](CN(C)Cc2ccc(Cl)c(Cl)c2)[C@H](C)CN([C@H](C)CO)C(=O)c2cc(NS(=O)(=O)c3cccs3)ccc2O1 | 7.26 µM |
| O=C1CC(=O)OC(c2ccc([N+](=O)[O-])cc2)O1 | 0.629 µM |
| CN1C(=O)c2cc(NC(=O)c3cccc(Cl)c3)ccc2OC[C@@H]2O[C@@H](CC(=O)NC3CCCCC3)CC[C@H]21 | > 20 µM (inactive) |
| O=C1NC2C(O)C(O)C(O)C(O)C2c2cc3c(c(O)c21)OCO3 (configuration not stated) | 0.155 µM |
| CN(C)c1ccc(C=c2c3cc(O)ccc3n3c2cc(-c2ccccc2)[n+]3C)cc1 | 3.43 µM |
| N#C[C@H]1N[C@H](CO)[C@H]1c1ccc(C#CC2CCCC2)cc1 | 6.27 µM |
| Cc1ccc(CN2CC(C(=O)Nc3ncc(C)s3)CC2=O)cc1 (configuration not stated) | 4.99 µM |
| Cc1ccc(O)c(N=Nc2ccccc2)n1 | 8.46 µM |
| CC1CC(C)C(=O)C(C(CC2CC(=O)NC(=O)C2)OC(=O)CC(=O)c2ccccc2)C1 (configuration not stated) | 3.18 µM |
| CC[C@@]1(O)C(=O)OCc2c1cc1n(c2=O)Cc2cc3cc(O)ccc3nc2-1 | 1.33 µM |
| CC1=C(SCCO)C(=O)c2ccccc2C1=O | 2.6 µM |
| COc1ccc(C#Cc2ccc([C@H]3[C@H]4CN(C(=O)c5ccncc5)CCCCN4[C@H]3CO)cc2)cc1 | 11.2 µM |
| CC(=O)OC1C(=O)OCC23CCC4(C)OC4C2OC2CC(OC(=O)C=CC=CC(=O)OCCC1C)C3(C)C21CO1 (configuration not stated) | 0.0056 µM |

| SMILES | AC50 |
| --- | --- |
| COc1ccc(/C=C/C(=O)Nc2ccccc2C(=O)O)cc1OC | 6.12 µM |
| O=C1NC2c3c(I)sc(I)c3C(=O)C2O1 (configuration not stated) | 3.2 µM |
| CCN(CC)c1ccc(C(NC(=O)C(C)C)c2ccc3cccnc3c2O)cc1 (configuration not stated) | > 20 µM (inactive) |
| O=C(Cc1ccccc1)N1CC[C@@H]2[C@H]1c1cc(-c3cccc(F)c3)ccc1N[C@@H]2CO | 1.89 µM |
| N#C[C@@H]1[C@H](c2ccc(C#CC3CCCCC3)cc2)[C@@H](CO)N1C(=O)Nc1ccc(F)cc1 | 10.4 µM |
| COc1ccc(/C=C2/CCC(CN3CCOCC3)C2=O)cc1 (configuration not stated) | 3.67 µM |
| CN1C(=O)/C(=N\OC(=O)c2cccc3ccccc23)c2ccccc21 | 1.21 µM |
| CC1(C)C(=O)C=C[C@@]2(C)C1C(=O)C(=O)[C@]1(C)C2CC[C@@]2(C)[C@H](c3ccoc3)C[C@H]3O[C@]321 (some centres not stated) | 3.47 µM |
| CC1=C(C#N)c2nc(N)c(C#N)c(C)c2/C1=C\c1ccccc1 | 4.41 µM |
| CCN(CC)CCCNc1nc2ccccc2c2[nH]c3ccc(OC)cc3c12 | 1.1 µM |
| c1ccc(-c2nc(-c3ccccn3)no2)cc1 | 3.98 µM |
| Cc1ccc(OCCn2cnc3c(N)ncnc32)cc1 | 0.649 µM |
| Cc1noc(C)c1S(=O)(=O)N(C)C[C@@H]1OCc2ccccc2-c2c(n(C)c3ccccc23)C(=O)N([C@@H](C)CO)C[C@@H]1C | 11.3 µM |
| O=C1/C(=C/c2ccccc2)C[C@@]2(O)C3Cc4ccc(O)c5c4[C@@]2(CCN3CC2CC2)[C@H]1O5 | 1.75 µM |
| C[n+]1c2n(c3ccccc31)N=C(c1ccc(-c3ccccc3)cc1)CS2 | 1.21 µM |
| O=C(c1nnsc1S(=O)(=O)c1ccc(Cl)cc1)N1CCOCC1 | 2.31 µM |
| O=S(c1ccccc1O)S(=O)c1ccccc1O (configuration not stated) | 4.55 µM |
| Clc1ccc(CSC(Cn2ccnc2)c2ccc(Cl)cc2Cl)cc1 (configuration not stated) | > 20 µM (inactive) |
| C[C@@H]1CN([C@H](C)CO)C(=O)c2ccccc2-c2ccccc2CO[C@@H]1CN(C)C(=O)c1cc(Cl)cc(Cl)c1 | 7.99 µM |
| C[C@@H]1CN([C@H](C)CO)C(=O)c2cc(NS(=O)(=O)c3cccs3)ccc2O[C@@H](C)CCCCO[C@H]1CN(C)Cc1ccc(Cl)c(Cl)c1 | > 20 µM (inactive) |
| O=C1NC2C(=CC(O)C(O)C2O)c2cc3c(c(O)c21)OCO3 (configuration not stated) | 0.0711 µM |
| CN(C)c1ccc(C(=C2C=CC(=[N+](C)C)C=C2)c2ccc(N(C)C)cc2)cc1 | 0.105 µM |
| COc1cccc(S(=O)(=O)N(C)C[C@@H]2OCc3ccccc3-c3c(n(C)c4ccccc34)C(=O)N([C@H](C)CO)C[C@H]2C)c1 | > 20 µM (inactive) |
